Source: patent publication US8309558B2, “Compounds for the treatment of hepatitis C” (Bristol-Myers Squibb Company, priority 2008, dated 2012)
Like-named read-outs stand apart in the source and are kept apart here.

What was measured:
[1] = test system: HCV replicon cells; experiment: HCV replicon FRET / luciferase assay (96-well plates); type: cell-based; conditions: Hepatitis C virus
Method in brief: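 Trypsinized replicon cells were seeded with compound titrations and incubated at 37 °C for various times. Alamar blue was added to gauge toxicity. Plates were then rinsed and either lysed with FRET peptide reagent for kinetic fluorescence reading or switched to phenol red-free DMEM for luciferase measurement.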

[2] = target: T1, HCV NS5B RdRp genotype 1b (Hepatitis C virus genotype 1b, UniProt Q9WMX2); experiment: Standard HCV NS5B RdRp enzyme assay; type: biochemical
T1 construct: The protein was expressed with an 18 amino acid C-terminal truncation to enhance the solubility; made in house; host or cells: E. coli BL21(DE3), pET21a vector
Method in brief: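 C-terminally truncated (18 aa) genotype 1b NS5B from E. coli, 28 nM, with 6 nM polyA template, 180 nM biotinylated oligo-dT12 primer and 3H-UTP (0.29 μM total UTP). Hepes pH 7.5 buffer with 2% DMSO; 60 min at 30° C. EDTA stop, SPA read-out; IC50 from seven concentrations by four-parameter fit.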

[3] = Table 1a, HCV replicon, read-out: EC50
[4] = Table 1a, HCV NS5B RdRp genotype 1b, read-out: IC50
[5] = Table 1b, HCV replicon, read-out: EC50
[6] = Table 1b, HCV NS5B RdRp genotype 1b, read-out: IC50
[7] = 24 h, Table 1d (class symbols), HCV replicon, read-out: EC50
[8] = Table 1d (class symbols), HCV NS5B RdRp genotype 1b, read-out: IC50

T1 sequence (Q9WMX2 2420-2992): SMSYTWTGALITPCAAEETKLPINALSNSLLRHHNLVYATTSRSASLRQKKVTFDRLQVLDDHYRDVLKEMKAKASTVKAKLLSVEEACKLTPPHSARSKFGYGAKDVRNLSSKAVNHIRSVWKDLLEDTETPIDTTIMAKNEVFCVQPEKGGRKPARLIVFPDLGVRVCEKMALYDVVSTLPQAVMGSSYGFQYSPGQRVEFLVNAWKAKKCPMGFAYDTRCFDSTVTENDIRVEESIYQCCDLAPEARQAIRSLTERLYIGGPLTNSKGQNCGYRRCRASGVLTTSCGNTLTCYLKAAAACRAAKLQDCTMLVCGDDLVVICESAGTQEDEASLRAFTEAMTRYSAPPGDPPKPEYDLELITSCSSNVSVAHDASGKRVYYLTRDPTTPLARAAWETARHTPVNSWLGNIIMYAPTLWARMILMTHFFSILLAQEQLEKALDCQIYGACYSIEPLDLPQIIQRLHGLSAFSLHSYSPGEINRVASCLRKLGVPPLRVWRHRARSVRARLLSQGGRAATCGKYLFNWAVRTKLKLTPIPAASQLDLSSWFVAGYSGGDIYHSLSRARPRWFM

| SMILES | EC50 [1, 3] [nM] | IC50 [2, 4] [nM] | EC50 [1, 5] [nM] | IC50 [2, 6] [nM] | also measured |
| --- | --- | --- | --- | --- | --- |
| CNC(=O)c1c(-c2ccc(F)cc2)oc2ccc(-c3ccc(C(=O)O)cc3)cc12 | 1000 to 10000 | 250 to 1000 | – | – | – |
| CNC(=O)c1c(-c2ccc(F)cc2)oc2ccc(-c3cccc(C(=O)NCC(N)=O)c3)cc12 | > 10000 | > 10000 | – | – | – |
| CCC(C)NC(=O)c1cccc(-c2ccc3oc(-c4ccc(F)cc4)c(C(=O)NC)c3c2)c1 (stereo not shown) | < 250 | < 250 | – | – | – |
| CNC(=O)c1c(-c2ccc(F)cc2)oc2ccc(-c3cc(C(=O)NCC(C)C)ccc3OCCN3CCOCC3)cc12 | – | – | < 250 | < 250 | – |
| CNC(=O)c1c(-c2ccc(F)cc2)oc2ccc(-c3cccc(C(=O)NS(=O)(=O)c4ccccc4)c3)cc12 | 1000 to 10000 | < 250 | – | – | – |
| CNC(=O)c1c(-c2ccc(F)cc2)oc2ccc(-c3cc(C(=O)NCC(C)C)ccc3OCC(C)O)cc12 (stereo not shown) | – | – | < 250 | < 250 | – |
| CNC(=O)c1c(-c2ccc(F)cc2)oc2ccc(-c3cccc(C(=O)NCCC(C)C)c3)cc12 | < 250 | 250 to 1000 | – | – | – |
| CNC(=O)c1c(-c2ccc(F)cc2)oc2ccc(OCCCNC(=O)OC(C)(C)C)cc12 | 1000 to 10000 | 1000 to 10000 | – | – | – |
| CNC(=O)c1c(-c2ccc(F)cc2)oc2cc(N)c(-c3cc(C(=O)NCC(C)C)ccc3OC)cc12 | – | – | < 250 | < 250 | – |
| CNC(=O)c1c(-c2ccc(F)cc2)oc2cc(N(CCO)S(C)(=O)=O)c(-c3cccc(C(=O)NC4(c5ccccc5)CC4)c3)cc12 | – | – | < 250 | < 250 | – |
| CNC(=O)c1c(-c2ccc(F)cc2)oc2ccc(-c3cc(C(=O)NC4(c5ccccn5)CC4)c(OC)cc3OCC(N)=O)cc12 | – | – | < 250 | < 20 | – |
| CNC(=O)c1c(-c2ccc(F)cc2)oc2ccc(-c3cccc(C(=O)NCCNC(C)=O)c3)cc12 | 1000 to 10000 | 1000 to 10000 | – | – | – |
| CNC(=O)c1c(-c2ccc(F)cc2)oc2ccc(-c3cccc(C(=O)Nc4nc(C)cs4)c3)cc12 | 250 to 1000 | < 250 | – | – | – |
| CNC(=O)c1c(-c2ccc(F)cc2)oc2ccc(-c3cccc(C(=O)N[C@@H](C)C(=O)OC)c3)cc12 | 1000 to 10000 | < 250 | – | – | – |
| CNC(=O)c1c(-c2ccc(F)cc2)oc2ccc(-c3cccc(C(=O)N4CCC(C)CC4)c3)cc12 | 1000 to 10000 | 1000 to 10000 | – | – | – |
| CNC(=O)c1c(-c2ccc(F)cc2)oc2ccc(-c3cccc(C(=O)N[C@H](C)c4ccc(F)cc4)c3)cc12 | < 250 | < 250 | – | – | – |
| CNC(=O)c1c(-c2ccc(F)cc2)oc2ccc(-c3cc(C(=O)NC4(c5ncccn5)CC4)c(C)cc3C)c(F)c12 | – | – | < 250 | 250 to 1000 | – |
| CCC[C@H](CO)NC(=O)c1cccc(-c2ccc3oc(-c4ccc(F)cc4)c(C(=O)NC)c3c2)c1 [drawing 617] | – | – | – | – | EC50 ([1]; untitled table after Table 1b, HCV replicon, values without asterisk, read-out: EC50): 1390 nM; IC50 ([2]; untitled table after Table 1b, HCV NS5B RdRp genotype 1b, read-out: IC50): 1150 nM |
| CNC(=O)c1c(-c2ccc(F)cc2)oc2ccc(-c3cc(C(=O)NC4(c5nnc(N)o5)CC4)ccc3C)cc12 | – | – | < 250 | < 250 | – |
| CNC(=O)c1c(-c2ccc(F)cc2)oc2ccc(-c3cccc(C(=O)Nc4ccccc4-c4ccccc4)c3)cc12 | < 250 | 1000 to 10000 | – | – | – |

| SMILES | EC50 [1, 3] [nM] | IC50 [2, 4] [nM] | EC50 [1, 5] [nM] | IC50 [2, 6] [nM] | also measured |
| --- | --- | --- | --- | --- | --- |
| CNC(=O)c1c(-c2ccc(F)cc2)oc2ccc(-c3cc(C(=O)NC4(c5nnc(C(C)C)[nH]5)CC4)ccc3C)cc12 | – | – | < 250 | < 250 | – |
| CNC(=O)c1c(-c2ccc(F)cc2)oc2ccc(-c3cccc(C(=O)N[C@H](C(N)=O)C(C)C)c3)cc12 | 1000 to 10000 | 250 to 1000 | – | – | – |
| CNC(=O)c1c(-c2ccc(F)cc2)oc2ccc(-c3cccc(C(=O)N[C@@H](C)C(=O)NC)c3)cc12 | 1000 to 10000 | 250 to 1000 | – | – | – |
| CNC(=O)c1c(-c2ccccc2)oc2ccc(-c3cc(C(=O)NC4(c5nnc(-c6ccccc6)[nH]5)CC4)ccc3C)cc12 | – | – | < 250 | < 250 | – |
| CNC(=O)c1c(-c2ccc(F)cc2)oc2ccc(-c3ccc(-c4cccc(CO)c4)c(C(=O)NCC(C)C)c3)cc12 | – | – | < 250 | < 250 | – |
| CNC(=O)c1c(-c2ccc(F)cc2)oc2ccc(-c3cccc(C(=O)N4C5CCC4CN(C)C5)c3)cc12 | – | – | – | – | EC50 [1]: 1000 to 10000 nM; IC50 [2]: 1000 to 10000 nM |
| CNC(=O)c1c(-c2ccc(F)cc2)oc2ccc(-c3cc(C(=O)NC4(c5ncccn5)CC4)c(OC)cc3C)c(F)c12 | – | – | < 250 | < 250 | – |
| CCN(CC)C(=O)c1cccc(-c2ccc3oc(-c4ccc(F)cc4)c(C(=O)NC)c3c2)c1 | 1000 to 10000 | 1000 to 10000 | – | – | – |
| CNC(=O)c1c(-c2ccc(F)cc2)oc2ccc(-c3ccc(CNS(C)(=O)=O)cc3)cc12 | > 1230 | > 10000 | – | – | – |
| CNC(=O)c1c(-c2ccc(F)cc2)oc2cc(N)c(-c3cccc(C(=O)NCC(C)C)c3)cc12 | – | – | < 250 | < 250 | – |
| CCOC(=O)CC(C)NC(=O)c1cccc(-c2ccc3oc(-c4ccc(F)cc4)c(C(=O)NC)c3c2)c1 (stereo not shown) | 250 to 1000 | < 250 | – | – | – |
| CNC(=O)c1c(-c2ccc(F)cc2)oc2cc(N(CCO)S(C)(=O)=O)c(-c3cccc(C(=O)NC(C)(C)C(=O)Nc4cc(C)no4)c3)cc12 | – | – | < 250 | < 250 | – |
| CNC(=O)c1c(-c2ccc(F)cc2)oc2ccc(-c3cc(C(=O)NC4(c5ccccc5)CC4)ccc3OCCN(C)C)cc12 | – | – | < 250 | < 250 | – |
| CCCOc1ccc(C(=O)NCC(C)C)cc1-c1ccc2oc(-c3ccc(F)cc3)c(C(=O)NC)c2c1 | – | – | 250 to 1000 | 1000 to 10000 | – |
| CNC(=O)c1c(-c2ccc(F)cc2)oc2ccc(-c3cc(C(=O)NC4(c5ccccn5)CC4)ccc3C(F)(F)F)cc12 | – | – | < 250 | < 250 | – |
| CNC(=O)c1c(-c2ccc(F)cc2)oc2ccc(-c3cccc(C(=O)NCCc4cccs4)c3)cc12 | 250 to 1000 | 250 to 1000 | – | – | – |
| CNC(=O)c1c(-c2ccc(F)cc2)oc2cc(NS(C)(=O)=O)c(-c3cccc(C(=O)NC(C)(C)c4ccccc4)c3)cc12 | < 250 | < 250 | – | – | – |
| CNC(=O)c1c(-c2ccc(F)cc2)oc2ccc(-c3cccc(C(=O)NCc4ccccc4)c3)cc12 | < 250 | < 250 | – | – | – |
| CNC(=O)c1c(-c2ccc(F)cc2)oc2ccc(-c3cccc(C(=O)N(C)CC(C)C)c3)cc12 | 250 to 1000 | < 250 | – | – | – |
| CNC(=O)c1c(-c2ccc(F)cc2)oc2ccc(-c3cccc(C(=O)NC(C)(C)C(=O)Nc4nncs4)c3)cc12 | – | – | < 250 | < 250 | – |

| SMILES | EC50 [1, 3] [nM] | IC50 [2, 4] [nM] | EC50 [1, 5] [nM] | IC50 [2, 6] [nM] | also measured |
| --- | --- | --- | --- | --- | --- |
| CNC(=O)c1c(-c2ccc(F)cc2)oc2ccc(-c3cc(OCc4ccco4)cc(C(=O)NCC(C)C)c3)cc12 | – | – | 1000 to 10000 | 1000 to 10000 | – |
| CNC(=O)c1c(-c2ccc(F)cc2)oc2ccc(-c3cc(C(=O)NCC(C)C)ccc3OCC(N)=O)cc12 | – | – | < 250 | < 250 | – |
| CNC(=O)c1c(-c2ccc(F)cc2)oc2ccc(-c3cc(C(=O)NCC(C)C)ccc3OCCC3CCCCN3)cc12 (stereo not shown) | – | – | < 250 | < 250 | – |
| CNC(=O)c1c(-c2ccc(F)cc2)oc2ccc(-c3ccc(-c4ccccc4OC)c(C(=O)NCC(C)C)c3)cc12 | – | – | < 250 | < 250 | – |
| CNC(=O)c1c(-c2ccc(F)cc2)oc2ccc(-c3ccc(S(=O)(=O)NC)cc3)cc12 | 1000 to 10000 | > 10000 | – | – | – |
| CNC(=O)c1c(-c2ccc(F)cc2)oc2ccc(-c3cc(C(=O)NC4(c5ccccc5)CC4)ccc3OCCO)cc12 | – | – | < 250 | < 250 | – |
| C#CCOc1cc(C(=O)NCC(C)C)cc(-c2ccc3oc(-c4ccc(F)cc4)c(C(=O)NC)c3c2)c1 | – | – | 1000 to 10000 | 1000 to 10000 | – |
| CNC(=O)c1c(-c2ccc(F)cc2)oc2ccc(-c3ccc(-c4ccccc4C(N)=O)c(C(=O)NCC(C)C)c3)cc12 | – | – | < 250 | < 250 | – |
| CNC(=O)c1c(-c2ccc(F)cc2)oc2ccc(-c3cc(C(=O)NC4(c5ccccn5)CC4)c(OC)cc3OC)cc12 | – | – | < 250 | < 250 | – |
| CNC(=O)c1c(-c2ccc(F)cc2)oc2ccc(-c3cc(C(=O)NCC(C)C)ccc3OCCCN3CCOCC3)cc12 | – | – | < 250 | < 250 | – |
| CNC(=O)c1c(-c2ccc(F)cc2)oc2ccc(-c3cc(OCCc4ccncc4)cc(C(=O)NCC(C)C)c3)cc12 | – | – | > 500 | < 250 | – |
| CNC(=O)c1c(-c2ccc(F)cc2)oc2ccc(-c3ccc(F)c(C(=O)O)c3)cc12 | > 10000 | 1000 to 10000 | – | – | – |
| CNC(=O)c1c(-c2ccc(F)cc2)oc2ccc(-c3cc(C(=O)NC4(c5ccccn5)CC4)c(OCc4cnccn4)cc3C)cc12 [drawing 660] | – | – | – | – | EC50 [1, 7]: 1 to 250 nM; IC50 [2, 8]: 1 to 250 nM |
| CNC(=O)c1c(-c2ccc(F)cc2)oc2ccc(-c3cc(C(=O)NC(C)(C)C)c(OC)cc3C)c(F)c12 | – | – | < 250 | < 250 | – |
| CNC(=O)c1c(-c2ccc(F)cc2)oc2ccc(-c3cc(C(=O)NCC(C)C)ccc3OCc3ccnc(Br)c3)cc12 | – | – | 250 to 1000 | 250 to 1000 | – |
| CNC(=O)c1c(-c2ccc(F)cc2)oc2ccc(-c3cccc(C(=O)NC(C)(C)c4ccc(Cl)cc4)c3)cc12 | – | – | < 250 | < 250 | – |
| CNC(=O)c1c(-c2ccc(F)cc2)oc2ccc(-c3cccc(C(=O)NC4(CO)CCCC4)c3)cc12 | < 250 | < 250 | – | – | – |
| CCOc1cc(C)c(-c2ccc3oc(-c4ccc(F)cc4)c(C(=O)NC)c3c2)cc1C(=O)NC1(c2ccccn2)CC1 | – | – | – | – | EC50 [1, 7]: 1 to 250 nM; IC50 [2, 8]: 1 to 250 nM |
| CNC(=O)c1c(-c2ccc(F)cc2)oc2ccc(-c3cc(C(=O)NC4(c5ccccn5)CC4)c(O)cc3Cl)cc12 | – | – | 250 to 1000 | < 250 | – |
